How the values were obtained:
[1] = test system: CIA transgenic TNF-luc mice; test: collagen type II-induced arthritis in transgenic TNF-luc mice (swelling, scores, weight); assay type: in vivo, BALB/c transgenic TNF-luc mice; set-up: key to joint index score / arthritis index score: 0–4 per paw, four paws summed, max 16; conditions: Adalimumab 8 mg/kg, mPEG-SC20k-HM-3 20 mg/kg; for right ankle swelling changes: CIA TNF-luc mice; for clinical score (Table 32, kg) / arthritis index score / clinical score: CIA chronic model
Protocol: 8 animals are randomly divided into 4 groups (n=2), a normal group, a model group, a positive drug group and a test group. On day 0, for the primary immunization, mice are hypodermically injected with 50 μL collagen emulsifier (containing CII 100 μg/ mouse) at the tail root of mice for sensitization. On day 0, initial ankle widths, initial foot palm widths and initial toe thicknesses of left and right feet of mice in each group are measured separately.
After day 21, the same dosage of emulsifier is used for second immunization at the tail root. After the symptoms such as redness and swelling of joints appear on the four toes of mice, continuous administration is performed for 15 days. The normal group and the model group are separately hypodermically injected with 0.9% normal saline (0.2 mL/20 g of body weight), once every 2 days, 7 times in total. The positive drug Adalimumab group is hypodermically injected with Adalimumab (8 mg/kg of body weight), once every 15 days, once in total. The test treatment group is hypodermically injected with mPEG-SC20k-HM-3 (20 mg/kg of body weight), once every 2 days, 7 times in total.
Every 2 days, the thickness of the ankle, the width of the foot palm and the thickness of the toes of each group of mice are measured with a vernier caliper.
Swelling degree of left ankle (cm)=swelling thickness of left ankle on day n of the experiment−measured initial thickness of left ankle.
Swelling degree of right ankle (cm)=swelling thickness of right ankle on day n of the experiment−measured initial thickness of right ankle.
The joints of the mouse paw are observed with naked eyes, and the joints are scored every 2 days from day 30. Scoring is performed in terms of level 0 to level 4, 5 levels in total. 0=no erythema or swelling; 1=slight erythema or swelling, with erythema or swelling on one of the front/hind toe joints; 2=erythema or swelling on more than one toe; 3=swelling of paw beneath the ankle or wrist joint; 4=swelling of all paws including the ankle joint. Four paws of the mice are scored separately, and the highest score is 16 points.
After the secondary inflammation appears, systemic scoring is performed every 2 days, and the scoring standards are as follows:
Hind foot: no swelling=0 point, swelling of one hind foot=1 point, swelling of two hind feet=2 points.
Front foot: no swelling=0, swelling of one front foot=1 point, swelling of two front feet=2 points.
Ears: no redness symptoms and nodules=0 point, redness symptoms or nodules of one ear=1 point, red symptoms and nodules of two ears=2 points.
Nose: no swelling=0 point, obvious swelling=1 point.
Tail: no nodule=0 point, nodules=1 point; the highest score is 8 points.

TNF-α = test: in vivo imaging of TNF-α expression, CIA transgenic TNF-luc mice; set-up: species or system BALB/c transgenic TNF-luc mice; conditions: day 36; Adalimumab 8 mg/kg, mPEG-SC20k-HM-3 20 mg/kg
Protocol: […] After the mice are lightly anesthetized with ether, the mice are fixed within 5-20 min and put into an in vivo imager, the imager is covered with an instrument lid, on-fluro and om-photo names in the desktop imaging interface of the computer are clicked, and the expose button is clicked to complete the fluorescence and white light photos of mice in vivo imaging. The specific imaging principle, operation steps, image processing and output are the same as those in the previous embodiment.

Q: What does the source list for Adalimumab [reference compound]?
A: left ankle swelling ([1]; 0 d): 0.000 ± 0.000 cm; right ankle swelling changes ([1]; 0 d, mean ± SD): 0.000 ± 0.000 cm; clinical score (Table 32, kg) ([1]; 0 d, mean ± SD): 0.000 ± 0.000; left ankle swelling ([1]; 12 d): 0.006 ± 0.050 cm; right ankle swelling changes ([1]; 12 d, mean ± SD): 0.010 ± 0.014 cm; clinical score (Table 32, kg) ([1]; 12 d, mean ± SD): 1.050 ± 0.778; left ankle swelling ([1]; 15 d): 0.011 ± 0.072 cm; right ankle swelling changes ([1]; 15 d, mean ± SD): 0.000 ± 0.028 cm; clinical score (Table 32, kg) ([1]; 15 d, mean ± SD): 0.940 ± 1.047; left ankle swelling ([1]; 18 d): 0.021 ± 0.058 cm; right ankle swelling changes ([1]; 18 d, mean ± SD): 0.012 ± 0.011 cm; clinical score (Table 32, kg) ([1]; 18 d, mean ± SD): 0.455 ± 0.247; left ankle swelling ([1]; 21 d): 0.001 ± 0.041 cm; right ankle swelling changes ([1]; 21 d, mean ± SD): 0.007 ± 0.010 cm; clinical score (Table 32, kg) ([1]; 21 d, mean ± SD): 0.230 ± 0.523; left ankle swelling ([1]; 24 d): 0.016 ± 0.048 cm; right ankle swelling changes ([1]; 24 d, mean ± SD): 0.009 ± 0.007 cm; clinical score (Table 32, kg) ([1]; 24 d, mean ± SD): 0.550 ± 0.212; left ankle swelling ([1]; 27 d): 0.007 ± 0.049 cm; right ankle swelling changes ([1]; 27 d, mean ± SD): 0.012 ± 0.017 cm; clinical score (Table 32, kg) ([1]; 27 d, mean): 1.295; left ankle swelling ([1]; 30 d): 0.012 cm; right ankle swelling changes ([1]; 30 d, mean ± SD): 0.008 ± 0.008 cm; clinical score (Table 32, kg) ([1]; 30 d, mean): 0.975; arthritis index score ([1]; 30 d, mean ± SD): 5.00 ± 2.83; clinical score ([1]; 30 d, mean ± SD): 5.00 ± 1.41; left ankle swelling ([1]; 33 d): 0.011 ± 0.041 cm; right ankle swelling changes ([1]; 33 d, mean ± SD): 0.011 ± 0.016 cm; arthritis index score ([1]; 33 d, mean ± SD): 8.00 ± 0.00; clinical score ([1]; 33 d, mean ± SD): 5.00 ± 0.00; clinical score (Table 32, kg) ([1]; 33 d, mean ± SD): 1.295 ± 0.177; left ankle swelling ([1]; 36 d): 0.012 ± 0.042 cm; right ankle swelling changes ([1]; 36 d, mean ± SD): 0.017 ± 0.007 cm; arthritis index score ([1]; 36 d, mean ± SD): 8.50 ± 0.71; clinical score ([1]; 36 d, mean ± SD): 5.00 ± 0.00; clinical score (Table 32, kg) ([1]; 36 d, mean ± SD): 2.200 ± 0.707; left ankle swelling ([1]; 39 d): 0.002 ± 0.031 cm; right ankle swelling changes ([1]; 39 d, mean ± SD): 0.007 ± 0.010 cm; arthritis index score ([1]; 39 d, mean ± SD): 6.50 ± 0.71; clinical score ([1]; 39 d, mean ± SD): 5.00 ± 0.00; clinical score (Table 32, kg) ([1]; 39 d, mean ± SD): 2.187 ± 0.443; left ankle swelling ([1]; 42 d): 0.003 ± 0.052 cm; right ankle swelling changes ([1]; 42 d, mean ± SD): 0.012 ± 0.017 cm; arthritis index score ([1]; 42 d, mean ± SD): 5.50 ± 0.71; clinical score ([1]; 42 d, mean ± SD): 5.00 ± 0.00; clinical score (Table 32, kg) ([1]; 42 d, mean ± SD): 2.655 ± 1.082; left ankle swelling ([1]; 45 d): 0.006 ± 0.051 cm; right ankle swelling changes ([1]; 45 d, mean ± SD): 0.005 ± 0.021 cm; arthritis index score ([1]; 45 d, mean ± SD): 5.00 ± 0.00; clinical score ([1]; 45 d, mean ± SD): 4.00 ± 0.00; clinical score (Table 32, kg) ([1]; 45 d, mean ± SD): 3.085 ± 1.478; left ankle swelling ([1]; 48 d): 0.007 ± 0.047 cm; right ankle swelling changes ([1]; 48 d, mean ± SD): 0.006 ± 0.006 cm; clinical score (Table 32, kg) ([1]; 48 d, mean): 3.415; arthritis index score ([1]; 48 d, mean ± SD): 5.00 ± 1.41; clinical score ([1]; 48 d, mean ± SD): 5.00 ± 0.00; left ankle swelling ([1]; 51 d): 0.001 cm; right ankle swelling changes ([1]; 51 d, mean ± SD): 0.004 ± 0.006 cm; clinical score (Table 32, kg) ([1]; 51 d, mean): 3.835; arthritis index score ([1]; 51 d, mean ± SD): 4.50 ± 0.71; clinical score ([1]; 51 d, mean ± SD): 4.50 ± 0.71; in vivo fluorescence densities (TNF-α): 20.76±4.43 10^5

From US20220202912A1, “Polypeptides in Preparation of Drugs for Treatment or Prevention of Rheumatoid Arthritis” (priority 2011, published 2022)
